Reference: patent US10316025B2, “Substituted piperazine compounds and methods of use and use thereof” (SUNSHINE LAKE PHARMA CO., LTD., priority 2015, dated 2019)

Legend:
[1] = molecular target: T1, human 5-HT transporters (SERT) (Homo sapiens, UniProt P31645); assay: Affinity to CHO cells-transfected human-derived 5-HT transporter ([3H]imipramine binding); settings: 2 nM [3H]imipramine, CHO cell membrane homogenate, 22°C, 60 min
T1 construct: expressed in transfected cells; host or cells: CHO cells (membrane homogenate)
T1 sequence (P31645 whole entry): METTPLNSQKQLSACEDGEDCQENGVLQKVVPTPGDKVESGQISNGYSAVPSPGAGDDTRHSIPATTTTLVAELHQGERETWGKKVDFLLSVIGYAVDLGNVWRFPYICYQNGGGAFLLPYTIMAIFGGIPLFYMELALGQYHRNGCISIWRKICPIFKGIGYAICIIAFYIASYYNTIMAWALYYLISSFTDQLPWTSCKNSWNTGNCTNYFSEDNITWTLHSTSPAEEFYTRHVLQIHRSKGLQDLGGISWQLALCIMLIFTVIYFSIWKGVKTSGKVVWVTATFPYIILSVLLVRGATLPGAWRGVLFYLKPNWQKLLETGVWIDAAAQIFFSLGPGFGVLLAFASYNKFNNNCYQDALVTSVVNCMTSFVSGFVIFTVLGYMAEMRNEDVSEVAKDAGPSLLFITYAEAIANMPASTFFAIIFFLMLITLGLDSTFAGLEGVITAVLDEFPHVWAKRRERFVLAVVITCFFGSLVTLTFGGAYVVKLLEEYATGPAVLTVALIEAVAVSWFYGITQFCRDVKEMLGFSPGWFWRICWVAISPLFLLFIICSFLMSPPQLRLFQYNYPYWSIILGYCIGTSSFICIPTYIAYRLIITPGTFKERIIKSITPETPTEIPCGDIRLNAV
Description: To a mixed system of cell membrane homogenate protein (12 μg), 2 nM of [^3H] imipramine and buffer solution (50 mM of Tris-HCl (pH 7.4), 120 mM of NaCl, 0.5 mM of KCl and 0.1% BSA) was added or not added the test compound at 22° C., and then the resulting mixture was incubated for 60 minutes.
To the mixed system mentioned above was added 10 μM of imipramine for measuring nonspecific binding values.
After incubation, the samples were filtered rapidly in vacuo with a 96-sample cell harvester (Unifilter, Packard) through glass-fiber filters (GF/B, Packard) pre-soaked with 0.3% PEI and rinsed several times with an ice-cold 50 mM of Tris-HCl and 150 mM of NaCl. The filters were dried and the retained radioactivity was measured by means of a scintillation counter (Topcount, Packard) using a scintillation cocktail (Microscint O, Packard). Each experimental result was expressed as a percentage inhibition of radioactive ligand specific binding relative to control groups.
The standard reference compound was imipramine, and ICso values were calculated by the competitive curve obtained from a series of concentrations of the experimental test. The experimental results of the affinity of the compounds disclosed herein to human 5-HT transporters (SERT) were listed in Table A.

5-HT1A receptors = molecular target: T2, 5-HT1A receptors (Homo sapiens, UniProt P08908); assay: h5-HT1A binding affinity test ([3H]8-OH-DPAT, HEK-293 cell homogenates); settings: 0.3 nM [3H]8-OH-DPAT, 22°C, 60 min, Ki from IC50 by ChengPrusoff equation
T2 construct: host or cells: human HEK-293 cell homogenates
T2 sequence (P08908 1-422): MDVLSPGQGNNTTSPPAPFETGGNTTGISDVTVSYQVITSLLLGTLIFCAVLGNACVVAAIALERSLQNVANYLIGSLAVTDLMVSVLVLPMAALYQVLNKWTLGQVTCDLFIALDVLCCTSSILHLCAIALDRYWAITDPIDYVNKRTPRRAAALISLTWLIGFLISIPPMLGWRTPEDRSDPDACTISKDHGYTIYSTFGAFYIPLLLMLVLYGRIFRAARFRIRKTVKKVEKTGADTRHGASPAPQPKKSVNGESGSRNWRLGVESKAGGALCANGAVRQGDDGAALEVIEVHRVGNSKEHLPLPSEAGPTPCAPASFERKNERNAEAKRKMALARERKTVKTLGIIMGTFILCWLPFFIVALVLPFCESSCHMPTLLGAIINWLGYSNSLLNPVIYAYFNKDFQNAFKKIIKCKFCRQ
Description: Human HEK-293 cell homogenates (36 μg of protein) were incubated at 22° C. for 60 minutes with 0.3 nM of [^3H]8-OH-DPAT (Perkin-Elmer) in the absence or presence of the test compound in a buffer solution containing 50 mM of Tris-HCl (pH 7.4), 10 mM of MgSO4, 0.5 mM of EDTA and 2 μg/mL aprotinine.
The non-specific binding value was determined by incubating the same mixture in the presence of 10 μM of 8-OH-DPAT, which was used as the standard reference compound. Competitive curve was obtained by testing data of 8-OH-DPAT in each experiment at several concentrations.
The incubated samples were filtered fastly using a 96-sample cell harvester (Unifilter, Packard) through fiberglass filter membranes (GF/B, Packard) pre-soaked with 0.3% PEI in vacuo, and washed several times with an ice cold 50 mM of Tris-HCl. The filter membranes were dried and the retained radioactivity was measured in a scintillation counter (Topcount, Packard) using a scintillation cocktail (Microscint 0, Packard). The experimental results were expressed as inhibition percentage of radioactive ligand specific binding relative to control groups.
The experiments of combining [^3H]8-OH-DPAT (0.3 nM) with 5-HT1A receptors of human HEK-293 cells were accomplished by using Scintillation Proximity Assay on membrane. The test compounds were required to be tested at least three times in the case of a concentration of more than 6 log, and the data were analyzed by the method of nonlinear regression using Hill equation curve to obtain an IC50 value, and then the IC50 value was calculated by ChengPrusoff equation to obtain a Ki value.

[2] = Pharmacokinetic evaluation in rats after intravenous or gavage administration; type: in vivo, SD rats; settings: for AUC(0-inf) / AUC(0-t) / Cmax / Tmax / clearance / half-life / Vd: SD, rat, plasma; for Vd: read-out: Vss
Description: The pharmacokinetic evaluation of the compound disclosed herein in rats, dogs and monkeys was carried out in this invention, and animal information as described in Table 1.
The compounds disclosed herein were administered in form of a saline solution containing 5% DMSO, 5% Kolliphor HS 15, 2% (2% HCl) and 88% Saline, or a physiological saline solution containing 10% DMSO, 10% Kolliphor HS 15 and 80% physiological saline to an animal subject. The animals of the intravenous administration group were administered at a dose of 1 mg/kg, and 0.3 mL of vein blood samples were collected at the time points of 0, 0.083, 0.25, 0.5, 1.0, 2.0, 5.0, 7.0 and 24 h after drug administration, then each blood sample was processed to separate plasma by centrifugation at 3000 rpm or 4000 rpm for 10 minutes, and the plasma samples were collected and stored at −20° C. or −70° C. The animals of the gavage administration group were administered at a dose of 2.5 mg/kg, and 0.3 mL of vein blood samples were collected at the time points of 0, 0.083, 0.25, 0.5, 1.0, 2.0, 5.0, 7.0 and 24 h after drug administration, then each blood sample was processed to separate plasma by centrifugation at 3000 rpm or 4000 rpm for 10 minutes, and the plasma samples were collected and stored at −20° C. or −70° C.
The above plasma was analyzed by the LC/MS/MS system.
The LC/MS/MS system for the analysis comprises an Agilent 1200 Series Vacuum Degasser, binary syringe pumps, a well-plate autosampler, a column oven and an Agilent G6430A Triple Quadrupole Mass Spectrometer equiped with an electrospray ionization (ESI) source.
Analysis was performed on waters XBridge C18 (2.1×50 mm, […] column, and 5 μL of sample was injected). Conditions of the analysis comprise: a mobile phase consisting of mobile phase A (water, 2 mM ammonium formate and 0.1% formic acid) and mobile phase B (methanol, 2 mM ammonium formate and 0.1% formic acid). A flow rate of 0.4 mL/min.

Row | Structure (SMILES) | IC50 [1] [nM] | Ki (5-HT1A receptors) [nM] | AUC(0-inf) ([2]; iv, 1 mg/kg) [ng·h/mL] | AUC(0-t) ([2]; iv, 1 mg/kg) [ng·h/mL] | Cmax ([2]; iv, 1 mg/kg) [ng/mL] | Tmax ([2]; iv, 1 mg/kg) [h] | clearance ([2]; iv, 1 mg/kg) [mL/min/kg] | half-life ([2]; iv, 1 mg/kg) [h] | Vd ([2]; iv, 1 mg/kg) [L/kg] | AUC(0-inf) ([2]; po, 2.5 mg/kg) [ng·h/mL] | AUC(0-t) ([2]; po, 2.5 mg/kg) [ng·h/mL] | Cmax ([2]; po, 2.5 mg/kg) [ng/mL] | Tmax ([2]; po, 2.5 mg/kg) [h] | half-life ([2]; po, 2.5 mg/kg) [h] | F ([2]; po, 2.5 mg/kg) [%]
1 | N#Cc1ccc2[nH]cc(CCCCN3CCN(c4ncc(-c5cccc(C(N)=O)c5)cn4)CC3)c2c1 [Example 1, 3-(2-(4-(4-(5-cyano-1H-indol-3-yl)butyl)piperazin-1-yl)pyrimidin-5-yl)benzamide] | 0.86 | 2.87 |  |  |  |  |  |  |  |  |  |  |  |  | 
2 | N#Cc1ccc2[nH]cc(CCCN3CCN(c4ncc(-c5cccc(C(N)=O)c5)cn4)CC3)c2c1 [Example 2, 3-(2-(4-(3-(5-cyano-1H-indol-3-yl)propyl)piperazin-1-yl)pyrimidin-5-yl) benzamide] | 0.35 | 1.21 | 753 | 722 | 409 | 0.083 | 22.9 | 1.59 | 2.33 | 767 | 706 | 241 | 0.833 | 1.95 | 39.2
3 | N#Cc1ccc2[nH]cc(CCCCN3CCN(c4ncc(-c5ccc(C(N)=O)cc5)cn4)CC3)c2c1 [Example 5, 4-(2-(4-(4-(5-cyano-1H-indol-3-yl)butyl)piperazin-1-yl)pyrimidin-5-yl)benzamide] | 0.79 | 8.42 |  |  |  |  |  |  |  |  |  |  |  |  | 
4 | N#Cc1ccc2[nH]cc(CCCN3CCN(c4ncc(-c5ccc(C(N)=O)cc5)cn4)CC3)c2c1 [Example 6, 4-(2-(4-(3-(5-cyano-1H-indol-3-yl)propyl)piperazin-1-yl)pyrimidin-5-yl) benzamide] | 0.93 | 4.13 |  |  |  |  |  |  |  |  |  |  |  |  | 
5 | N#Cc1ccc2[nH]cc(CCCCN3CCN(c4ncc(-c5ccc(F)cc5)cn4)CC3)c2c1 [Example 7, 3-(4-(4-(5-(4-fluorophenyl)pyrimidin-2-yl)piperazin-1-yl)butyl)-1H-indole-5-carbonitrile] | 0.88 | 3.7 | 1030 | 1010 | 299 | 0.139 | 16.7 | 4.64 | 5.03 | 2010 | 1960 | 194 | 2.67 | 4.37 | 78.1
6 | N#Cc1ccc2[nH]cc(CCCN3CCN(c4ncc(-c5ccc(F)cc5)cn4)CC3)c2c1 [Example 8, 3-(3-(4-(5-(4-fluorophenyl)pyrimidin-2-yl)piperazin-1-yl)propyl)-1H-indole-5-carbonitrile] | 1.3 | 1.9 | 1250 | 1180 | 195 | 0.139 | 13.4 | 5.85 | 6.01 | 2070 | 2140 | 180 | 4 | 4.85 | 68.48
7 | COc1ccccc1-c1cnc(N2CCN(CCCCc3c[nH]c4ccc(C#N)cc34)CC2)nc1 [Example 9, 3-(4-(4-(5-(2-methoxyphenyl)pyrimidin-2-yl)piperazin-1-yl)butyl)-1H-indole-5-carbonitrile] | 1 | 2.7 |  |  |  |  |  |  |  |  |  |  |  |  | 
8 | COc1ccccc1-c1cnc(N2CCN(CCCc3c[nH]c4ccc(C#N)cc34)CC2)nc1 [Example 10] | 0.84 | 3.4 |  |  |  |  |  |  |  |  |  |  |  |  | 
9 | N#Cc1ccc2[nH]cc(CCCCN3CCN(c4ncc(-c5ccc(Cl)cc5)cn4)CC3)c2c1 [Example 11, 3-(4-(4-(5-(4-chlorophenyl)pyrimidin-2-yl)piperazin-1-yl)butyl)-1H-indole-5-carbonitrile] | 1.6 | 13 |  |  |  |  |  |  |  |  |  |  |  |  | 
10 | N#Cc1ccc2[nH]cc(CCCN3CCN(c4ncc(-c5ccc(Cl)cc5)cn4)CC3)c2c1 [Example 12, 3-(3-(4-(5-(4-chlorophenyl)pyrimidin-2-yl)piperazin-1-yl)propyl)-1H-indole-5-carbonitrile] | 0.32 | 5.5 | 2240 | 1870 | 444 | 0.083 | 7.5 | 9.52 | 5.46 |  | 2950 | 207 | 5.67 |  | 52.62
11 | N#Cc1ccc2[nH]cc(CCCCN3CCN(c4ncc(-c5ccc(F)cc5F)cn4)CC3)c2c1 [Example 13, 3-(4-(4-(5-(2,4-difluorophenyl)pyrimidin-2-yl)piperazin-1-yl)butyl)-1H-indole-5-carbonitrile] | 1.2 | 1.3 | 724 | 643 | 330 | 0.083 | 23.8 | 3.9 | 6 | 1160 | 1070 | 152 | 1 | 4.14 | 66.4
12 | N#Cc1ccc2[nH]cc(CCCN3CCN(c4ncc(-c5ccc(F)cc5F)cn4)CC3)c2c1 [Example 14, 3-(3-(4-(5-(2,4-difluorophenyl)pyrimidin-2-yl)piperazin-1-yl)propyl)-1H-indole-5-carbonitrile] | 0.58 | 0.92 | 1500 | 1340 | 193 | 0.25 | 11.6 | 7.53 | 6.41 | 3130 | 2790 | 180 | 5 | 7.28 | 83.28
13 | COc1cc(F)ccc1-c1cnc(N2CCN(CCCCc3c[nH]c4ccc(C#N)cc34)CC2)nc1 [Example 15, 3-(4-(4-(5-(4-fluoro-2-methoxyphenyl)pyrimidin-2-yl)piperazin-1-yl)butyl)-1H-indole-5-carbonitrile] | 0.96 | 11 |  |  |  |  |  |  |  |  |  |  |  |  | 
14 | COc1cc(F)ccc1-c1cnc(N2CCN(CCCc3c[nH]c4ccc(C#N)cc34)CC2)nc1 [Example 16, 3-(3-(4-(5-(4-fluoro-2-methoxyphenyl)pyrimidin-2-yl)piperazin-1-yl)propyl)-1H-indole-5-carbonitrile] | 0.87 | 7.1 |  |  |  |  |  |  |  |  |  |  |  |  | 
